In EP0768085A1, “ANTIBACTERIAL AGENT” (DAIICHI PHARMACEUTICAL CO., LTD., priority 1994, dated 1996):
Converted amounts (≈) assume the structure as drawn.

Tests used:
Format in all cases: cell-based
[1] = test system: Staphylococcus aureus TI-1; experiment: Antibacterial activity (IC), broth microplate as in Example 4 (Example 5, Table 40); conditions: TI1, 18 h
Description: (§1) A suitable amount of a sample was dissolved in dimethylsulfoxide (DMSO), and the resultant solution was diluted with the same amount of sterilized distilled water to prepare a bulk sample of 1,000 µg/ml. Mueller-Hinton broth (product of DIFCO) was dispensed into each well of 96-well microplate. Thereafter, the bulk specimen was added to the first well of a row, and successively diluted (10-fold each time) with sterilized distilled water. Separately, a bacterial cell suspension for the test (Staphylococcus aureus 209-P) which had been cultured in the above-mentioned broth overnight at 37°C was inoculated to each well so that the final inoculation amount of 10^6 CFU/ml was attained. The final concentrations of the samples were 100, 10, and 1 µg/ml.
(§2) The antibacterial action was evaluated by the inhibitory concentration (hereinafter abbreviated as IC) at which propagation of the bacteria cultured at 37°C for 18 hours was inhibited. Inhibition was determined by the turbidity of the medium. The expressions "IC≤100", "≤10", and "≤1" indicate that MIC-equivalent values obtained at the succesive […] dilution of the sample are 100-10 µg/ml, 10-1 µg/ml, and not more than 1 µg/ml, respectively. […] (In the subsequent Examples, the same rule applies correspondingly.) Table 39
In a manner similar to that described in Example 4, antibacterial activity of the invention compound was determined. The bacterium used for the test was Staphylococcus aureus TI-1.

[2] = test system: Staphylococcus aureus 209-P; experiment: Antibacterial activity (IC), Mueller-Hinton broth, 96-well microplate (Example 4, Table 39); conditions: 37°C, 18 hours
Description: as §1, §2

Pasteurella from fish = experiment: Antibacterial activity (IC), agar as in Example 8, media with 1.5% NaCl, 25°C (Example 20, Tables 53-55); conditions: Pasteurella piscicida KP94-02
Description: as §2
(§3) A suitable amount of a sample was dissolved in dimethylsulfoxide (DMSO), after which the resulting solution was diluted with the same amount of sterilized distilled water to prepare a bulk sample of 1,000 µg/ml. Separately, a bacterial liquid for the test (methicillin-resistant Staphylococcus aureus (MRSA) isolated from humans) which had been cultured in Mueller-Hinton broth (product of DIFCO) was prepared and inoculated to a Mueller-Hinton agar (product of DIFCO) containing the sample so that the final inoculation amount of 10^6 CFU/ml was achieved. The final concentrations of the samples were 100, 10, and 1 µg/ml.
(§4) After culturing at 37°C for 18 hours, the antibacterial activity was evaluated in terms of IC in a manner similar to that described in Example 4.
(§5) In a manner similar to that described in Example 8, antibacterial activity of a variety of ketonitrile derivatives shown in Tables 53-55 was measured. The bacteria used for the test were Enterococcus and Pasteurella from fish. The culture conditions were such that the media contained 1.5% NaCl, and the culture temperature was 25°C.

Enterococcus from fish = experiment: as above
Description: as §2, §3, §4, §5

[3] = test system: Pasteurella multocida (Kobe-6); experiment: Antibacterial activity (IC), agar as in Example 8 (Example 17, Table 50); conditions: 18 h, origin pig
Description: as §2, §3, §4
In a manner similar to that described in Example 8, antibacterial activity of the invention compound was determined. The bacterium used for the test was Pasteurella Kobe-6 (origin: pig, Pasteurella multocida).

[4] = test system: Streptococcus aureus (TI-1); experiment: Antibacterial activity (IC), agar as in Example 8 (Example 16, Table 49); conditions: 18 h
Description: as §2, §3, §4
In a manner similar to that described in Example 8, antibacterial activity of the invention compound was determined. The bacterium used for the test was […] aureus (TI-1).

[5] = test system: Staphylococcus aureus (209-P); experiment: Antibacterial activity (IC), agar as in Example 8 (Example 15, Table 48); conditions: 18 h
Description: as §2, §3, §4
The bacterium used for the test was Staphylococcus aureus (209-P).

Row | SMILES | MIC [3] | MIC [4] | MIC [5] | other results
1 | CC(Oc1ccc(Oc2ncc(C(F)(F)F)cc2Cl)cc1)C(=O)C(C#N)c1ccc(F)cc1F (centres unmarked) [compound 25] |  |  |  | MIC [1]: 10 to 100 µg/mL (≈ 20.1 to 201 µM); MIC [2]: 10 to 100 µg/mL (≈ 20.1 to 201 µM)
2 | CC(Oc1ccc(Oc2ncc(C(F)(F)F)cc2Cl)cc1)C(=O)C(C#N)c1cc(F)ccc1F (centres unmarked) [compound 26] |  |  |  | MIC [1]: 10 to 100 µg/mL (≈ 20.1 to 201 µM); MIC [2]: 10 to 100 µg/mL (≈ 20.1 to 201 µM)
3 | CC(Oc1ccc(Oc2ncc(C(F)(F)F)cc2Cl)cc1)C(=O)C(C#N)c1c(F)cccc1F (centres unmarked) [compound 28] |  |  |  | MIC [1]: 10 to 100 µg/mL (≈ 20.1 to 201 µM)
4 | CC(Oc1ccc(Oc2ccc([N+](=O)[O-])cc2F)cc1)C(=O)C(C#N)c1ccc(Cl)cc1Cl (centres unmarked) [compound 29] |  |  |  | MIC [1]: 10 to 100 µg/mL (≈ 20.4 to 204 µM); MIC [2]: 10 to 100 µg/mL (≈ 20.4 to 204 µM)
5 | CCN(Cc1ccccc1)C(=O)C(C#N)C(=O)C(C)Oc1ccc(Oc2ncc(C(F)(F)F)cc2Cl)cc1 (centres unmarked) [compound 39] |  |  |  | MIC [2]: 10 to 100 µg/mL (≈ 18.3 to 183 µM)
6 | CC(Oc1ccc(Oc2ncc(C(F)(F)F)cc2Cl)cc1)C(=O)C(C#N)C(=O)N1CCCc2ccccc21 (centres unmarked) [compound 40] |  |  |  | MIC [2]: 10 to 100 µg/mL (≈ 18.4 to 184 µM)
7 | CC(Oc1cc(Oc2ccc(C(F)(F)F)cc2Cl)ccc1[N+](=O)[O-])C(=O)C(C#N)C(=O)N1CCCCC1 (centres unmarked) [compound 135] | 10 to 100 µg/mL (≈ 18.5 to 185 µM) |  |  | MIC (Pasteurella from fish): 10 to 100 µg/mL (≈ 18.5 to 185 µM); IC (Enterococcus from fish; Enterococcus Seriolicida HI): ≤100 (MIC-equivalent values obtained at the succesive 2-fold dilution of the sample are 100-10 µg/ml); IC (Enterococcus from fish; Enterococcus Seriolicida KG86050): ≤100 (MIC-equivalent values obtained at the succesive 2-fold dilution of the sample are 100-10 µg/ml); IC (Enterococcus from fish; Enterococcus Seriolicida MS89060): ≤100 (MIC-equivalent values obtained at the succesive 2-fold dilution of the sample are 100-10 µg/ml); IC (Enterococcus from fish; Enterococcus Seriolicida MS89064): ≤100 (MIC-equivalent values obtained at the succesive 2-fold dilution of the sample are 100-10 µg/ml); IC (Enterococcus from fish; Enterococcus Seriolicida MS89066): ≤100 (MIC-equivalent values obtained at the succesive 2-fold dilution of the sample are 100-10 µg/ml); IC (Enterococcus from fish; Enterococcus Seriolicida MS89068): ≤100 (MIC-equivalent values obtained at the succesive 2-fold dilution of the sample are 100-10 µg/ml); IC (Enterococcus from fish; Enterococcus Seriolicida SE94-001): ≤100 (MIC-equivalent values obtained at the succesive 2-fold dilution of the sample are 100-10 µg/ml); MIC (Enterococcus from fish; Enterococcus Seriolicida SE94-002): 10 to 100 µg/mL (≈ 18.5 to 185 µM); IC (Enterococcus from fish; Enterococcus Seriolicida SE94-003): ≤100 (MIC-equivalent values obtained at the succesive 2-fold dilution of the sample are 100-10 µg/ml); IC (Enterococcus from fish; Enterococcus Seriolicida SE94-004): ≤100 (MIC-equivalent values obtained at the succesive 2-fold dilution of the sample are 100-10 µg/ml); IC (Enterococcus from fish; Enterococcus Seriolicida SE94-005): ≤100 (MIC-equivalent values obtained at the succesive 2-fold dilution of the sample are 100-10 µg/ml)
8 | CC(Oc1cc(Oc2ccc(C(F)(F)F)cc2Cl)ccc1[N+](=O)[O-])C(=O)C(C#N)C(=O)N1CCOCC1 (centres unmarked) [compound 137] | 10 to 100 µg/mL (≈ 18.5 to 185 µM) | 10 to 100 µg/mL (≈ 18.5 to 185 µM) | 10 to 100 µg/mL (≈ 18.5 to 185 µM) | 
9 | CC(Oc1cc(Oc2ccc(C(F)(F)F)cc2Cl)ccc1Cl)C(=O)C(C#N)c1ccc(Cl)cc1Cl (centres unmarked) [compound 151] | 10 to 100 µg/mL (≈ 17.8 to 178 µM) | ≤ 1 µg/mL | ≤ 1 µg/mL | 
10 | CC(Oc1cc(Oc2ccc(C(F)(F)F)cc2Cl)ccc1Cl)C(=O)C(C#N)c1ccc(Cl)c(Cl)c1 (centres unmarked) [compound 152] | 1 to 10 µg/mL (≈ 1.78 to 17.8 µM) | ≤ 1 µg/mL | ≤ 1 µg/mL | 
11 | CC(Oc1cc(Oc2ccc(C(F)(F)F)cc2Cl)ccc1Cl)C(=O)C(C#N)c1ccccc1 (centres unmarked) [compound 156] | 10 to 100 µg/mL (≈ 20.2 to 202 µM) |  | 1 to 10 µg/mL (≈ 2.02 to 20.2 µM) | 
12 | CC(Oc1cc(Oc2ccc(C(F)(F)F)cc2Cl)ccc1Cl)C(=O)C(C#N)C(=O)N1CCCC1 (centres unmarked) [compound 169] |  | 10 to 100 µg/mL (≈ 19.4 to 194 µM) | 10 to 100 µg/mL (≈ 19.4 to 194 µM) | 
13 | CC(Oc1cc(Oc2ccc(C(F)(F)F)cc2Cl)ccc1Cl)C(=O)C(C#N)C(=O)N1CCCCC1 (centres unmarked) [compound 170] | 10 to 100 µg/mL (≈ 18.9 to 189 µM) | 1 to 10 µg/mL (≈ 1.89 to 18.9 µM) | 1 to 10 µg/mL (≈ 1.89 to 18.9 µM) | 
14 | CC(Oc1cc(Oc2ccc(C(F)(F)F)cc2Cl)ccc1Cl)C(=O)C(C#N)C(=O)N1CCOCC1 (centres unmarked) [compound 172] |  |  | 10 to 100 µg/mL (≈ 18.8 to 188 µM) | 
15 | CC(Oc1cc(Oc2ccc(C(F)(F)F)cc2Cl)ccc1Cl)C(=O)C(C#N)C(=O)N(C)c1ccccc1 (centres unmarked) [compound 175] |  |  | 1 to 10 µg/mL (≈ 1.81 to 18.1 µM) | 
16 | CC(Oc1cccc(Oc2ccc(C(F)(F)F)cc2Cl)c1)C(=O)C(C#N)c1cccc(Cl)c1 (centres unmarked) [compound 207] |  | ≤ 1 µg/mL | ≤ 1 µg/mL | 
17 | CC(Oc1cccc(Oc2ccc(C(F)(F)F)cc2Cl)c1)C(=O)C(C#N)C(=O)N1CCCCC1 (centres unmarked) [compound 208] |  | 1 to 10 µg/mL (≈ 2.02 to 20.2 µM) | 1 to 10 µg/mL (≈ 2.02 to 20.2 µM) | 
